Assay results taken from US11312727B1, “Macrocyclic flu endonuclease inhibitors” (Janssen BioPharma, Inc., priority 2018, dated 2022).
Like-named read-outs stand apart in the source and are kept apart here.

Tests used:
[1] = in vitro; details: human, CC50, uninfected A549 cells, CellTiter-Glo
[2] = system: Influenza strain A549 A/WSN/33 (H1N1); test: microbe, parasite or virus in culture; format: cell-based; details: A549 cells, influenza A/WSN/33 (H1N1), 20 hours incubation, read-out: A549_A(H1N1) EC50

Row | SMILES | CC50 [1] [nM] | EC50 ([2]; Influenza A virus, A549, 20 h) [nM] | EC50 [2] [nM]
1 | C/C1=C/COc2ccccc2[C@@H](c2ccccc2)N2CN(C1)C(=O)c1c(O)c(=O)ccn12 (single isomer, unassigned) [Compound 38A, (18*R,Z)-12-hydroxy-8-methyl-18-phenyl-6,9-dihydro-18H-10,17-methanobenzo[b]pyrido[1,2-f][1]oxa[5,6,9]triazacyclotridecine-11,13-dione] | > 2000 | > 1000 | 
2 | C/C1=C/COc2ccccc2[C@H](c2ccccc2)N2CN(C1)C(=O)c1c(O)c(=O)ccn12 (single isomer, unassigned) [Compound 38B, (18*S,Z)-12-hydroxy-8-methyl-18-phenyl-6,9-dihydro-18H-10,17-methanobenzo[b]pyrido[1,2-f][1]oxa[5,6,9]triazacyclotridecine-11,13-dione] | > 2000 | 26 | 
3 | O=C1c2c(O)c(=O)ccn2N2CN1CCCCCc1ccccc1[C@@H]2c1ccccn1 (single isomer, unassigned) [Compound 40A, (17*R)-4-hydroxy-16-(pyridin-2-yl)-7,8,9,10,11,16-hexahydro-6,17-methanobenzo[k]pyrido[1,2-b][1,2,5]triazacyclotridecine-3,5-dione] | > 2000 | 30 | 
4 | O=C1c2c(O)c(=O)ccn2N2CN1CCCCCc1ccccc1[C@H]2c1ccccn1 (single isomer, unassigned) [Compound 40B, (17*S)-4-hydroxy-16-(pyridin-2-yl)-7,8,9,10,11,16-hexahydro-6,17-methanobenzo[k]pyrido[1,2-b][1,2,5]triazacyclotridecine-3,5-dione] | > 2000 | > 1000 | 
5 | O=C1c2c(O)c(=O)ccn2N2CN1C/C=C\COc1cc(F)c(F)cc1[C@H]2c1ccccc1 (single isomer, unassigned) [Compound 41A, (18*R,Z)-2,3-difluoro-12-hydroxy-18-phenyl-6,9-dihydro-18H-10,17-methanobenzo[b]pyrido[1,2-f][1]oxa[5,6,9]triazacyclotridecine-11,13-dione] | > 2000 | 294 | 
6 | O=C1c2c(O)c(=O)ccn2N2CN1C/C=C\COc1cc(F)c(F)cc1[C@@H]2c1ccccc1 (single isomer, unassigned) [Compound 41B, (18*S,Z)-2,3-difluoro-12-hydroxy-18-phenyl-6,9-dihydro-18H-10,17-methanobenzo[b]pyrido[1,2-f][1]oxa[5,6,9]triazacyclotridecine-11,13-dione] | > 2000 | 6 | 
7 | C/C1=C/CN2CN([C@H](c3ccccc3)c3ccccc3OC1)n1ccc(=O)c(O)c1C2=O (single isomer, unassigned) [Compound 44A, (18*R,*Z)-12-hydroxy-7-methyl-18-phenyl-6,9-dihydro-18H-10,17-methanobenzo[b]pyrido[1,2-f][1]oxa[5,6,9]triazacyclotridecine-11,13-dione] | > 200 | > 100 | 
8 | C/C1=C/CN2CN([C@@H](c3ccccc3)c3ccccc3OC1)n1ccc(=O)c(O)c1C2=O (single isomer, unassigned) [Compound 44B, (18*S,*Z)-12-hydroxy-7-methyl-18-phenyl-6,9-dihydro-18H-10,17-methanobenzo[b]pyrido[1,2-f][1]oxa[5,6,9]triazacyclotridecine-11,13-dione] | > 20000 | > 10000 | 
9 | O=C1c2c(O)c(=O)ccn2N2CN1C/C=C\COc1ccccc1[C@H]2c1ccc(F)c(F)c1 (single isomer, unassigned) [Compound 45A, (18*R,Z)-18-(3,4-difluorophenyl)-12-hydroxy-6,9-dihydro-18H-10,17-methanobenzo[b]pyrido[1,2-f][1]oxa[5,6,9]triazacyclotridecine-11,13-dione] | > 2000 | > 1000 | 
10 | O=C1c2c(O)c(=O)ccn2N2CN1C/C=C\COc1ccccc1[C@@H]2c1ccc(F)c(F)c1 (single isomer, unassigned) [Compound 45B, (18*S,Z)-18-(3,4-difluorophenyl)-12-hydroxy-6,9-dihydro-18H-10,17-methanobenzo[b]pyrido[1,2-f][1]oxa[5,6,9]triazacyclotridecine-11,13-dione] | > 200 | 14 | 
11 | O=C1c2c(O)c(=O)ccn2N2CN1C/C=C\COc1ccccc1[C@H]2c1ccc(F)cc1 (single isomer, unassigned) [Compound 47A, (18*R,Z)-18-(4-fluorophenyl)-12-hydroxy-6,9-dihydro-18H-10,17-methanobenzo[b]pyrido[1,2-f][1]oxa[5,6,9]triazacyclotridecine-11,13-dione] | > 2000 | > 1000 | 
12 | O=C1c2c(O)c(=O)ccn2N2CN1C/C=C\COc1ccccc1[C@@H]2c1ccc(F)cc1 (single isomer, unassigned) [Compound 47B, (18*S,Z)-18-(4-fluorophenyl)-12-hydroxy-6,9-dihydro-18H-10,17-methanobenzo[b]pyrido[1,2-f][1]oxa[5,6,9]triazacyclotridecine-11,13-dione] | > 200 | 15 | 
13 | O=C1c2c(O)c(=O)ccn2N2CN1CCCCCOc1cccc3c1[C@H]2c1ccccc1SC3 (single isomer, unassigned) [Compound 48A] | > 2000 |  | > 1000
14 | O=C1c2c(O)c(=O)ccn2N2CN1CCCCCOc1cccc3c1[C@@H]2c1ccccc1SC3 (single isomer, unassigned) [Compound 48B] | > 2000 |  | 27
15 | O=C1c2c(O)c(=O)ccn2N2CN1C/C=C\COc1ccc(Cl)cc1[C@H]2c1ccccc1 (single isomer, unassigned) [Compound 51A] | > 2000 | > 1000 | 
16 | O=C1c2c(O)c(=O)ccn2N2CN1C/C=C\COc1ccc(Cl)cc1[C@@H]2c1ccccc1 (single isomer, unassigned) [Compound 51B] | > 2000 | 10 | 
17 | O=C1c2c(O)c(=O)ccn2N2CN1C/C=C\COc1cccc3c1[C@H]2c1ccccc1OC3 (single isomer, unassigned) [Compound 53A, (21a*R,Z)-16-hydroxy-6,10,13,21a-tetrahydro-7,8-(epiprop[1]en[1]yl[3]ylidene)-14,21-methanobenzo[6,7]oxepino[4,5-c]pyrido[1,2-f][1]oxa[5,6,9]triazacyclotridecine-15,17-dione] | > 2000 | 34 | 
18 | O=C1c2c(O)c(=O)ccn2N2CN1C/C=C\COc1cccc3c1[C@@H]2c1ccccc1OC3 (single isomer, unassigned) [Compound 53B, (21a*S,Z)-16-hydroxy-6,10,13,21a-tetrahydro-7,8-(epiprop[1]en[1]yl[3]ylidene)-14,21-methanobenzo[6,7]oxepino[4,5-c]pyrido[1,2-f][1]oxa[5,6,9]triazacyclotridecine-15,17-dione] | > 2000 | > 1000 | 
19 | O=C1c2c(O)c(=O)ccn2N2CN1CCC/C=C\c1ccccc1[C@H]2c1ccccc1 (single isomer, unassigned) [Compound 54A, (16*R,*Z)-4-hydroxy-16-phenyl-7,8,9,16-tetrahydro-6,17-methanobenzo[k]pyrido[1,2-b][1,2,5]triazacyclotridecine-3,5-dione] | > 2000 | > 1000 | 
20 | O=C1c2c(O)c(=O)ccn2N2CN1CCC/C=C\c1ccccc1[C@@H]2c1ccccc1 (single isomer, unassigned) [Compound 54B, (16*S,*Z)-4-hydroxy-16-phenyl-7,8,9,16-tetrahydro-6,17-methanobenzo[k]pyrido[1,2-b][1,2,5]triazacyclotridecine-3,5-dione] | > 2000 | 33 | 
